Laboratory results published in US11162083B2, “Peptide based inhibitors of Raf kinase protein dimerization and kinase activity” (UNIVERSITY OF SOUTH CAROLINA, priority 2018, dated 2021).

Experiments:
B-Raf = B-Raf (Homo sapiens, UniProt P15056); assay type: binding
Excerpt: An isothermal titration calorimeter composed of two identical cells surrounded by an adiabatic jacket was used to perform ITC measurements. The thermopile/thermocouple circuits were used to detect temperature differences between a reference cell (filled with buffer or water) and a sample cell containing the macromolecule. During an experiment, ligand is titrated into the sample cell in precisely known aliquots, causing heat to be either taken up or evolved (depending on the nature of the reaction). Measurements consist of the time-dependent input of power required to maintain equal temperatures between the sample and reference cells. In an exothermic reaction, the temperature in the sample cell increases upon addition of ligand. This causes the feedback power to the sample cell to be decreased (remember: a reference power is applied to the reference cell) in order to maintain an equal temperature between the two cells. In an endothermic reaction, the opposite occurs; the feedback circuit increases the power in order to maintain a constant temperature (isothermic/isothermal operation). […] The pattern of these heat effects as a function of the molar ratio [ligand]/[macromolecule] can then be analyzed to give the thermodynamic parameters of the interaction under study.

[1] = tested on: NRASQ61K-mutant SBC12 melanoma cells; assay: Western blotting of MEK/ERK signaling in melanoma cells; details: peptide added to SBC12 cells; 1 μM PLX4032 or DMSO; Western blot
Description: Following recovery at 37° C. for 30 minutes, the cells were treated with 1 μM PLX4032 for 1 hour or DMSO as a vehicle control. Subsequently, the cells were harvested, lysed using RIPA buffer and analyzed by Western blotting using the indicated antibodies. […] Four hours prior to harvest, the cells were treated with 1 μM vemurafenib (PLX4032), or the same volume of DMSO as vehicle control. RIPA buffer lysates were subjected to Western blotting using the indicated antibodies. Detection of HSP90 serves as a representative loading control.
Following recovery at 37° C. for 30 minutes, cells were treated with 1 μM PLX4032 for 1 hour or DMSO as a vehicle control. Subsequently, the cells were harvested, lysed using RIPA buffer, and analyzed by Western blotting using the indicated antibodies.

dimer interface of B-Raf = dimer interface of B-Raf (Homo sapiens, UniProt P15056); assay: Dissociation constant (Kd) determination from intrinsic Trp fluorescence (ITF) measurements; assay type: binding; details: for Kd, binding affinity to the dimer forming interface of B-Raf (FIG. 1): no unit printed in this block
Chain of dimer interface of B-Raf (P15056 whole entry): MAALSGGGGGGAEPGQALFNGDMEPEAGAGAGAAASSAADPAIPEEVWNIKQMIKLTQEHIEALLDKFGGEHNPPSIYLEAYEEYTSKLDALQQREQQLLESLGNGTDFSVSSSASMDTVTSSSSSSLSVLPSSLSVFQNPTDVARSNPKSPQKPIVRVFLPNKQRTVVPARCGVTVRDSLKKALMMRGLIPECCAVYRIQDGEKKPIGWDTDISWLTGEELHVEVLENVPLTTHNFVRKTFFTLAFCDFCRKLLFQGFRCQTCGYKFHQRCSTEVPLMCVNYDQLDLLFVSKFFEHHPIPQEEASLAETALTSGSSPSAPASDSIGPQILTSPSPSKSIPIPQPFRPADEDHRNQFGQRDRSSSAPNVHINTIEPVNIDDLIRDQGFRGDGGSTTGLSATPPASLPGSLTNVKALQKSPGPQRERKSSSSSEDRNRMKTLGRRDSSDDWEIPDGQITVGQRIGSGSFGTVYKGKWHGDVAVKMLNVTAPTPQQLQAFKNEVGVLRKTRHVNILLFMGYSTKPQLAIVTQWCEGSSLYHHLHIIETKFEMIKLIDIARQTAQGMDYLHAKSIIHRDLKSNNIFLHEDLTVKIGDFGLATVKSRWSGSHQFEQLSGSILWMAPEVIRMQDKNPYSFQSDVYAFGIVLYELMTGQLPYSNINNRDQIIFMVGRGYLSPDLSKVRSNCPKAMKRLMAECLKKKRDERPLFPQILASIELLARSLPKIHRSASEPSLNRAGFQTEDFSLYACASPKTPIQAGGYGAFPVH
Description: The dissociation constant is an indicator of binding strength between two molecules. For the reaction: P+L↔PL Kd is expressed by Equation 1: Kd=[P][L]/[PL] Eq. 1 where [P] is the concentration of free Protein, [L] is the concentration of free Ligand, and [PL] is the Ligand-bound-Protein.
Fluorescence intensity was measured with a Hitachi F-2500 fluorescence spectrophotometer. A 1.6 mL of protein solution (0.5 μM) was placed in a cuvette and equilibrated at 15° C. for 1 hour. After equilibration, small increments (2-15 μL) of the ligand solution were injected in the cuvette. The experiments were performed in 20 mM Hepes buffer (pH 7.5), 10 mM MgCl2, 30 mM NaCl. […] The slits were set at 10 and 10 nm in the excitation and emission respectively. To determine dilution effect of B-Raf (due to ligand addition) and any fluorescence effect by unbound ligand, a blank sample containing Trp with the same fluorescence signal, was titrated with ligand additions as described above. The sample absorbance was kept below 0.1 to minimize the inner filter effect.
Dissociation constant of B-Raf/Ligand was calculated by fitting data in Eq. 2.
Data were analyzed using Origin 7, using the one site bind function for nonlinear fit.

Chain of B-Raf (P15056 whole entry): as above

CC[C@H](C)[C@H](NC(=O)[C@H](CC(N)=O)NC(=O)[C@@H](NC(=O)[C@H](Cc1c[nH]cn1)NC(=O)[C@H](CCCNC(=N)N)NC(=O)[C@H](C)NC(=O)[C@H](CCCCN)NC(=O)[C@H](CCCNC(=N)N)NC(=O)[C@H](CC(C)C)NC(=O)[C@@H](NC(=O)CN)C(C)C)C(C)C)C(=O)N[C@@H](CC(C)C)C(=O)N[C@@H](CC(C)C)C(=O)N[C@@H](Cc1ccccc1)C(=O)N[C@@H](CCSC)C(=O)NCC(=O)N[C@@H](Cc1ccc(O)cc1)C(=O)N[C@@H](CO)C(=O)N[C@H](C(=O)O)[C@@H](C)O [SEQ ID NO: 8]
ΔH of binding (ITC) (B-Raf): -34.8 kJ/mol | ΔS of binding (ITC) (B-Raf): −28.4 J/mol·K

CC[C@H](C)[C@H](NC(=O)[C@H](CC(N)=O)NC(=O)[C@@H](NC(=O)[C@H](Cc1c[nH]cn1)NC(=O)[C@H](CCCNC(=N)N)NC(=O)[C@@H](NC(=O)[C@H](CCCCN)NC(=O)[C@H](CCCNC(=N)N)NC(=O)[C@H](CC(C)C)NC(=O)[C@@H](N)C(C)C)[C@@H](C)O)C(C)C)C(=O)N[C@@H](CC(C)C)C(=O)N[C@@H](CC(C)C)C(=O)N[C@@H](Cc1ccccc1)C(=O)N[C@@H](CCSC)C(=O)NCC(=O)O [SEQ ID NO: 17]
downstream signaling of MEK and ERK (pMEK, pERK) [1]: reduce downstream signaling of MEK and ERK

CC[C@H](C)[C@H](NC(=O)[C@H](CC(N)=O)NC(=O)[C@@H](NC(=O)[C@H](Cc1cnc[nH]1)NC(=O)[C@H](CCCNC(=N)N)NC(=O)[C@@H](NC(=O)[C@H](CCCCN)NC(=O)[C@H](CCCNC(=N)N)NC(=O)[C@H](CC(C)C)NC(=O)[C@@H](NC(=O)CN)C(C)C)[C@@H](C)O)C(C)C)C(=O)N[C@@H](CC(C)C)C(=O)N[C@@H](CC(C)C)C(=O)N[C@@H](Cc1ccccc1)C(=O)N[C@@H](CCSC)C(=O)NCC(=O)N[C@@H](Cc1ccc(O)cc1)C(=O)N[C@@H](CO)C(=O)N[C@H](C(=O)O)[C@@H](C)O [SEQ ID NO: 1]
Kd (dimer interface of B-Raf): ~3840 nM

GVLRKTRHVNILLDMGYST [SEQ ID NO: 14]
Kd, binding affinity to the dimer forming interface of B-Raf (FIG. 1) (dimer interface of B-Raf): no measurable binding

GVLRKTHHVNILGFWGYST [SEQ ID NO: 2]
Kd, binding affinity to the dimer forming interface of B-Raf (FIG. 1) (dimer interface of B-Raf): no measurable binding

CC[C@H](C)[C@H](NC(=O)[C@H](CC(N)=O)NC(=O)[C@@H](NC(=O)[C@H](Cc1cnc[nH]1)NC(=O)[C@H](CCCNC(=N)N)NC(=O)[C@@H](NC(=O)[C@H](CCCCN)NC(=O)[C@H](CC(C)C)NC(=O)[C@H](CC(C)C)NC(=O)[C@@H](NC(=O)CN)C(C)C)[C@@H](C)O)C(C)C)C(=O)N[C@@H](CC(C)C)C(=O)N[C@@H](CC(C)C)C(=O)N[C@@H](Cc1ccccc1)C(=O)N[C@@H](CCSC)C(=O)NCC(=O)N[C@@H](Cc1ccc(O)cc1)C(=O)N[C@@H](CO)C(=O)N[C@H](C(=O)O)[C@@H](C)O [SEQ ID NO: 6]
Kd (dimer interface of B-Raf): ~540 nM

GVLRKTRFVNILLFMGYST [SEQ ID NO: 9]
Kd, binding affinity to the dimer forming interface of B-Raf (FIG. 1) (dimer interface of B-Raf): no measurable binding
